Data reported in patent US9684238B2, “Fluorene-type compound, photopolymerization initiator comprising said fluorene-type compound, and photosensitive composition containing said photopolymerization initiator” (TOKYO OHKA KOGYO CO., LTD., priority 2012, dated 2017).

How the values were obtained:
[1] = Evaluation 1: 20-μm pattern line width of transparent photosensitive composition; settings: for 20-μm pattern line width: transparent composition, initiator 0.4 mmol
Description: After that, the mixture was filtered with a membrane filter having an aperture of 5 μm to provide a photosensitive composition.
It should be noted that the fluorene-based compound as a photopolymerization initiator was used in such an amount that its molar quantity was kept constant in the respective examples and comparative examples.
The glass substrate after the application was dried with a fan dryer at 90° C. for 10 minutes. Thus, a coating film (photosensitive layer) was formed. Next, the film was exposed to light having an exposure energy quantity of 5 mJ/cm^2, 10 mJ/cm^2, 20 mJ/cm^2, 40 mJ/cm^2, 60 mJ/cm^2, or 80 mJ/cm^2 by using a high-pressure mercury lamp (manufactured by Karl Suss, trade name: “MASK ALIGNER”) through a negative mask (mask width: 20 μm). Next, the resultant was immersed in a 0.1 wt % aqueous solution of tetramethylammonium hydroxide (TMAH) and then rinsed with pure water. The remaining cured film was subjected to the following evaluation.
(§1) A larger value for the line width means higher sensitivity.

[2] = Average transmittance of composition; assay type: physicochemical; settings: photosensitive composition, quartz cell, optical path length 1 cm
Description: The average transmittance (%) of each of the photosensitive resin compositions obtained in Examples 1 to 9, Examples 2-1 to 2-10, and Comparative Examples 1 and 2 in the range of from 400 nm to 700 nm was measured with a spectrophotometer (manufactured by Hitachi High-Technologies Corporation, trade name: “U-3900H”, quartz cell, optical path length; 1 cm).

[3] = Decomposition point by thermal analysis (TG-DTA); assay type: physicochemical; settings: 5.0 mg
Description: The compounds 1, 2, 4, 6, 8, 9, 11, 12, 13, 15, 16, D-1, D-3, D-4, D-7, D-8, D-9, D-12, D-14, D-15, D-20, C-1, and C-2 were each subjected to measurement with a thermal analysis apparatus (TG-DTA) (manufactured by Rigaku Corporation, trade name: “Thermo Plus EVO TG 8120”) by using 5.0 mg thereof.

[4] = Absorption coefficient (absorbance of 0.001% solution in tetrahydrofuran); assay type: physicochemical; settings: for Λ max (absorption maximum wavelength): 0.001% (wt/vol) in tetrahydrofuran, from 280 nm to 400 nm; for Absorption coefficient at 365 nm / Absorption coefficient at Λ max: 0.001% (wt/vol) solution in tetrahydrofuran
Description: A 0.001% (wt/vol) solution of each of the compounds 1, 2, 4, 6, 8, 9, 11, 12, 13, 15, 16, D-1, D-3, D-4, D-7, D-8, D-9, D-12, D-14, D-15, D-20, C-1, and C-2 in tetrahydrofuran was prepared, and its absorbance was measured with a spectrophotometer (manufactured by Hitachi High-Technologies Corporation, trade name: “U-3900H”). An absorption maximum wavelength (Amax) at a wavelength of from 280 nm to 400 nm was read from an absorption spectrum obtained with the spectrophotometer.

[5] = Transmittance of transparent cured film; assay type: physicochemical; settings: for Average transmittance (700 nm to 400 nm) Transparent cured film / Transmittance (400 nm) Transparent cured film: cured at exposure energy quantity 80 mJ/cm^2
Description: Transparent cured films were formed by using the photosensitive compositions obtained in Examples 1 to 9, Examples 2-1 to 2-10, and Comparative Examples 1 and 2 in the same manner as in the evaluation 1 except that the exposure energy quantity was set to 80 mJ/cm^2. The transmittance (%) of each of the resultant transparent cured films at 400 nm and the average transmittance (%) thereof in the range of from 400 to 700 nm were measured with a spectrophotometer (manufactured by Hitachi High-Technologies Corporation, trade name: “U-3900H”, quartz cell, optical path length; 1 cm). A higher transmittance at 400 nm means less coloring with a yellow color. In addition, a higher transmittance of a coating film means a higher transmitting property of a pattern to be formed.

[6] = Evaluation 3: 20-μm pattern line width of black photosensitive composition; settings: black composition (carbon black, cardo resin), initiator 0.4 mmol
From the text: The mixture was filtered with a membrane filter having an aperture of 5 μm to provide a photosensitive composition.
Photosensitive compositions were each obtained in the same manner as in Example 10 except that the used fluorene-based compound and its usage were changed as shown in Table 5.
Each of the photosensitive compositions obtained in Examples 10 to 15, Examples 2-11 to 2-20, and Comparative Example 3 was applied onto a glass substrate with a spin coater (manufactured by Kyowariken Co., Ltd., trade name: “K-359SD1”) so that its thickness after drying became 1.0 μm. The glass substrate after the application was dried with a fan dryer at 90° C. for 10 minutes. Thus, a coating film (photosensitive layer) was formed. Next, the film was exposed to light having an exposure energy quantity of 10 mJ/cm^2, 20 mJ/cm^2, 40 mJ/cm^2, 60 mJ/cm^2, or 80 mJ/cm^2 by using a high-pressure mercury lamp (manufactured by Karl Suss, trade name: “MASK ALIGNER”) through a negative mask (mask width: 20 μm). Next, the resultant was immersed in a 0.1 wt % aqueous solution of tetra methyl ammonium hydroxide (TMAH) and then rinsed with pure water. The remaining cured film was subjected to the following evaluation. In addition, FIGS. 2, 3, and 6 show microscope photographs of black cured films obtained by using the photosensitive compositions of Examples 10 and 11, and Comparative Example 3, and FIGS. 7 to 11 show microscope photographs of black cured films obtained by using the photosensitive compositions of Examples 2-11, 2-13, 2-14, 2-17, and 2-18.
as §1

[7] = Solubility in PGME, PGMEA and ethyl lactate; assay type: physicochemical; settings: room temperature
Description: An evaluation for solubility was performed in accordance with the following evaluation criteria based on the dissolution amount.
A: 10 Parts by weight or more of the photopolymerization initiator is dissolved.
B: An amount in the range of from 5 parts by weight or more to less than 10 parts by weight of the photopolymerization initiator is dissolved.
C: An amount in the range of from 2 parts by weight or more to less than 5 parts by weight of the photopolymerization initiator is dissolved.
D: Less than 2 parts by weight of the photopolymerization initiator is dissolved.

[8] = exposure energy quantity 10 mJ/cm^2
[9] = exposure energy quantity 20 mJ/cm^2
[10] = exposure energy quantity 40 mJ/cm^2
[11] = exposure energy quantity 60 mJ/cm^2
[12] = exposure energy quantity 80 mJ/cm^2
[13] = photopolymerization initiator containing the compound
[14] = exposure energy quantity 5 mJ/cm^2

| Average transmittance (700 nm to 400 nm) Solution [2] [%] | Decomposition point [3] [°C] | Λ max (absorption maximum wavelength) [4] [nm] | Absorption coefficient at 365 nm [4] [mL/mg/cm] | Absorption coefficient at Λ max [4] [mL/mg/cm] | Average transmittance (700 nm to 400 nm) Transparent cured film [5] [%] | Transmittance (400 nm) Transparent cured film [5] [%] | SMILES | 20-μm pattern line width [1, 8] | 20-μm pattern line width [1, 9] | 20-μm pattern line width [1, 10] | 20-μm pattern line width [1, 11] | 20-μm pattern line width [1, 12] | 20-μm pattern line width ([6]; 10 mJ/cm^2) | 20-μm pattern line width ([6]; 20 mJ/cm^2) | 20-μm pattern line width ([6]; 40 mJ/cm^2) | 20-μm pattern line width ([6]; 60 mJ/cm^2) | 20-μm pattern line width ([6]; 80 mJ/cm^2) | 20-μm pattern line width [1, 14] | other results |
| --- | --- | --- | --- | --- | --- | --- | --- | --- | --- | --- | --- | --- | --- | --- | --- | --- | --- | --- | --- |
| 77.8 | 195.2 | 335.5 | 11.8 | 43.0 | 99.8 | 99.7 | CCCCCCC1(CCCCCC)c2cc(C(=O)c3ccc([N+](=O)[O-])cc3)ccc2-c2ccc(C(CC(C)N(OC(C)=O)C(C)=O)=NOC(C)=O)cc21 (racemic) [Compound 12] | 19.8 | 20.0 | 21.0 | 21.2 | 21.5 | – | – | – | – | – | – | – |
| 94.0 | 192.7 | 330.0 | 3.0 | 54.0 | 100.0 | 99.4 | CCCCCCC1(CCCCCC)c2cc(C(=O)c3ccc(F)cc3)ccc2-c2ccc(/C(CC(C)N(OC(C)=O)C(C)=O)=N\OC(C)=O)cc21 (centres unmarked) [Compound 9] | 19.9 | 20.5 | 21.3 | 22.2 | 22.8 | 19.9 | 20.5 | 21.3 | 22.2 | 22.8 | – | transparency of photosensitive composition and formed product (in words) [5, 13]: additionally excellent transparency |
| 79.2 | 167.1 | 338.5 | 9.2 | 36.3 | 99.4 | 97.0 | CCCCCCC1(CCCCCC)c2cc(C(=O)C(=NOC(C)=O)c3cc(C)ccc3C)ccc2-c2ccc(C(=O)c3ccc([N+](=O)[O-])cc3)cc21 [Compound 13] | 19.4 | 19.6 | 19.8 | 20.6 | 21.0 | – | – | – | – | – | – | – |
| 75.9 | 264.0 | 369.0 | 26.8 | 27.2 | 95.1 | 72.7 | CCn1c2ccc(/C(=N\OC(C)=O)c3ccc(OC(C)COC)cc3C)cc2c2cc([N+](=O)[O-])ccc21 (centres unmarked) [Compound C-2, reference compound] | 21.3 | 22.3 | 23.6 | 23.5 | 24.0 | – | – | – | – | – | – | Solubility Ethyl lactate ([7]; in 100 parts by weight of ethyl lactate): C (An amount in the range of from 2 parts by weight or more to less than 5 parts by weight of the photopolymerization initiator is dissolved.); Solubility PGMEA ([7]; in 100 parts by weight of propylene glycol monomethyl ether acetate): B (An amount in the range of from 5 parts by weight or more to less than 10 parts by weight of the photopolymerization initiator is dissolved.); Solubility PGME ([7]; in 100 parts by weight of propylene glycol monomethyl ether): C (An amount in the range of from 2 parts by weight or more to less than 5 parts by weight of the photopolymerization initiator is dissolved.) |
| 65.1 | 186.9 | 345.5 | 36.3 | 53.9 | 99.5 | 92.7 | CCCC1(CCC)c2cc(C(CCCSc3ccc(Cl)cc3)=NOC(C)=O)ccc2-c2ccc([N+](=O)[O-])cc21 [Compound D-14] | 20.6 | 21.7 | 22.8 | – | 23.2 | 19.9 | 20.6 | 21.7 | 22.8 | 23.2 | 19.9 | sensitivity to the active energy ray (in words) [1, 13]: additionally high sensitivity to the active energy ray |
| 86.2 | 202.1 | 346.0 | 36.7 | 52.6 | 99.1 | 91.9 | CCCC1(CCC)c2cc(C(=O)C(CCSc3ccc(Cl)cc3)=NOC(C)=O)ccc2-c2ccc([N+](=O)[O-])cc21 [Compound D-15] | 19.9 | 20.7 | 21.4 | – | 22.3 | 19.5 | 19.9 | 20.7 | 21.4 | 22.3 | 19.5 | – |
